Results published in publication PMC8482815, “Targeting Host Glycolysis as a Strategy for Antimalarial Development” (Frontiers in Cellular and Infection Microbiology, 2021).
“And” between values parts separate entries of the source, which are not always exact repeats. Identical values can stand only once.

System: human erythrocytes
Experiment: Untargeted metabolomics and 13C-glucose tracing of enolase inhibitor treated erythrocytes
Format: cell-based
Details: 0h
Description: Freshly collected erythrocytes were washed, resuspended to 10% hematocrit in buffer [25mM HEPES (pH 7.4), 120mM NaCl, 5.4mM KCl, 1.8mM CaCl2, and 1mM NaH2PO4], incubated for 1 hour at 37°C, then centrifuged at 2000xg for 5 minutes at 4°C, resuspended in fresh wash buffer to 30-40% hematocrit, and split into 210µL aliquots of packed erythrocytes. […] All samples were incubated at 37°C shaking at 500 RPM. Triplicate samples of supernatants and packed erythrocytes were collected at 0, 0.5, 1, and 6-hour intervals and snap-frozen in liquid N2.
RBC and media samples were extracted at 1:10 and 1:20 dilutions, respectively, in 5:3:2 MeOH : MeCN:H2O v/v/v, and supernatants analyzed on a Thermo Vanquish UHPLC coupled to a Thermo Q Exactive mass spectrometer, as extensively described ([Nemkov et al., 2015]; [Nemkov et al., 2017]). The extraction buffer was supplemented with 40uM 3-^13C lactate to allow absolute quantification of lactate isotopologues, including lactate generated via glycolysis ([1,2,3-^13C3] enriched) vs. the pentose phosphate pathway ([2,3-^13C2] enriched), as described ([Reisz et al., 2016]). Metabolite assignments, peak area integration and isotopologues distributions were determined using Maven (Princeton University) ([Nemkov et al., 2015]; [Nemkov et al., 2017]).
Data were auto-scaled and normalized to zero-hour time points. Metabolites were removed from the dataset if greater than 50% of the samples contained missing values or the relative standard deviation among replicates exceeded 25%. Additionally, data was filtered using the interquartile range to reduce near-constant values from the experiment by 5%.
A principal component analysis of preprocessed data was plotted with the 95% confidence interval minimum volume enclosing ellipsoid for each respective group (MetaboAnalyst, cluster, plotly). A two-way repeated measures analysis of variance (ANOVA) was performed with multiple comparisons corrected for using a false discovery rate p-value cutoff of 0.05. Metabolite-Pathway analysis was performed using the R package of MetaboAnalyst, as previously described ([Xia and Wishart, 2010]). Metabolite-Protein nodal analysis was performed using omicsnet.ca and as previously described ([Zhou and Xia, 2018]).

[1] = treated erythrocytes, one value per replicate sample, polarity +
[2] = treated erythrocytes, one value per replicate sample, polarity -
[3] = treated erythrocytes, replicate samples

Compound: CC(C)(C)C(=O)OCOP(=O)(OCOC(=O)C(C)(C)C)C1CC(O)N(O)C1=O (stereo not shown) [POMSF]
- AMP level (metabolomics signal) (replicate samples): 1.48E+06 and 1.22E+06 and 1.21E+06
- ATP level (metabolomics signal) (replicate samples): 1.36E+04 and 1.16E+04 and 9.69E+03
- Adenine level (metabolomics signal) (replicate samples): 1.41E+05 and 1.42E+05 and 1.51E+05
- Cytosine level (metabolomics signal) (replicate samples): 4.50E+04 and 5.15E+04 and 1.27E+05
- L-alanine level (metabolomics signal) (replicate samples): 6.40E+06 and 7.71E+06 and 9.55E+06
- L-arginine level (metabolomics signal) (replicate samples): 1.10E+07 and 7.60E+06 and 2.77E+06
- L-asparagine level (metabolomics signal) (replicate samples): 1.89E+06 and 2.56E+06 and 2.42E+06
- L-aspartate level (metabolomics signal) (replicate samples): 1.71E+07 and 2.26E+07 and 2.06E+07
- L-cysteine level (metabolomics signal) (replicate samples): 7.54E+05 and 3.33E+05 and 7.35E+04
- L-glutamate level (metabolomics signal) (replicate samples): 1.88E+07 and 2.22E+07 and 2.32E+07
- L-glutamine level (metabolomics signal) (replicate samples): 2.62E+07 and 2.59E+07 and 2.28E+07
- L-histidine level (metabolomics signal) (replicate samples): 1.62E+06 and 1.23E+06 and 1.63E+06
- L-isoleucine level (metabolomics signal) (replicate samples): 3.04E+07 and 2.95E+07 and 2.26E+07
- L-leucine level (metabolomics signal) (replicate samples): 9.83E+07 and 1.22E+08 and 9.50E+07
- L-lysine level (metabolomics signal) (replicate samples): 3.76E+06 and 3.81E+06 and 3.28E+06
- L-methionine level (metabolomics signal) (replicate samples): 1.04E+07 and 1.29E+07 and 9.06E+06
- L-phenylalanine level (metabolomics signal) (replicate samples): 4.95E+06 and 5.41E+06 and 4.32E+06
- L-proline level (metabolomics signal) (replicate samples): 3.86E+07 and 3.62E+07 and 3.21E+07
- L-serine level (metabolomics signal) (replicate samples): 1.54E+06 and 1.82E+06 and 2.05E+06
- L-threonine level (metabolomics signal) (replicate samples): 2.66E+06 and 3.06E+06 and 2.69E+06
- L-tryptophan level (metabolomics signal) (replicate samples): 5.64E+06 and 3.84E+06 and 3.64E+06
- L-tyrosine level (metabolomics signal) (replicate samples): 1.11E+07 and 1.27E+07 and 8.94E+06
- L-valine level (metabolomics signal) (replicate samples): 9.15E+07 and 1.15E+08 and 1.39E+08
- dCMP level (metabolomics signal) (replicate samples): 3.07E+04 and 2.16E+04 and 2.21E+04
- dTMP level (metabolomics signal) (replicate samples): 1.28E+06 and 1.67E+06 and 9.76E+05
- glycine level (metabolomics signal) (replicate samples): 9.91E+05 and 9.30E+05 and 1.13E+06
- N-Acyl-D-aspartate (C06380) metabolite signal [1]: 2.50E+05 and 2.72E+05 (2×)
- Poly-gamma-D-glutamate (C05723) metabolite signal [1]: 1.72E+07 and 2.04E+07 and 1.59E+07
- D-Ribitol 5-phosphate (C01068) metabolite signal [2]: 2.00E+04 and 3.48E+04 and 2.09E+04
- D-glucono-1,5-lactone (C00198) metabolite signal [2]: 5.28E+05 and 7.59E+05 and 7.80E+05
- L-Noradrenaline (C00547) metabolite signal [2]: 2.74E+05 and 1.74E+05 and 9.62E+04
- Oxalosuccinate (C05379) metabolite signal [2]: 1.90E+05 and 1.88E+05 and 1.84E+05
- Pyridoxamine (C00534) metabolite signal [2]: 3.31E+04 and 3.01E+04 and 2.36E+04
- Thioredoxin disulfide (C00343) metabolite signal [2]: 8.00E+04 and 1.23E+05 and 3.03E+04
- 1-4-beta-D-Xylan (metabolite signal) [3]: 2.50E+05 and 2.94E+05 and 2.54E+05
- 2-Hydroxyglutarate/Citramalate (C02630) metabolite signal [3]: 2.14E+05 and 2.40E+05 and 2.04E+05
- 5-6-Dihydrothymine (C00906) metabolite signal [3]: 3.14E+05 and 3.41E+05 and 2.85E+05
- 5-10-Methenyltetrahydrofolate (metabolite signal) [3]: 2.33E+05 and 3.06E+05 and 3.71E+05
- 5-Hydroxyisourate (C11821) metabolite signal [3]: 2.99E+06 and 4.00E+06 and 4.10E+06
- 5-L-Glutamyl-taurine (metabolite signal) [3]: 1.28E+05 and 9.38E+04 and 1.74E+05
- 5-Oxoproline (metabolite signal) [3]: 1.06E+06 and 1.19E+06 and 1.05E+06
- (S)(+)-Allantoin (C02350) metabolite signal [3]: 3.96E+04 and 4.19E+04 and 4.78E+04
- Allantoate (C00499) metabolite signal [3]: 5.92E+05 and 4.20E+05 and 1.48E+05
- Ascorbate (metabolite signal) [3]: 1.27E+05 and 1.55E+05 and 1.07E+05
- CMP-N-acetylneuraminate (metabolite signal) [3]: 3.49E+04 and 6.40E+04 and 4.41E+04
- Carnosine (metabolite signal) [3]: 1.74E+05 and 2.21E+05 and 3.49E+05
- Citrate (C00158) metabolite signal [3]: 3.66E+04 and 3.31E+04 and 3.64E+04
- Creatine (metabolite signal) [3]: 2.22E+08 and 2.62E+08 and 3.28E+08
- Creatinine (metabolite signal) [3]: 3.21E+06 and 3.75E+06 and 4.22E+06
- Cys-Gly (metabolite signal) [3]: 2.17E+06 and 2.00E+06 and 1.46E+06
- D-Glucosamine (metabolite signal) [3]: 1.02E+05 and 8.07E+04 and 1.48E+05
- D-Glucose (C00031) metabolite signal [3]: 6.82E+06 and 7.47E+06 and 6.93E+06
- D-Ribose (C00121) metabolite signal [3]: 1.55E+05 and 2.41E+05 and 2.38E+05
- Dehydroascorbate (metabolite signal) [3]: 1.97E+04 and 1.24E+04 and 6.28E+03
- Dihydrofolate (metabolite signal) [3]: 2.52E+06 and 2.25E+06 and 7.96E+05
- Dimethylglycine (metabolite signal) [3]: 8.88E+05 and 1.01E+06 and 1.45E+06
- Diphosphate (C00013) metabolite signal [3]: 6.51E+03 and 2.62E+03 and 7.12E+02
- Fumarate (C00122) metabolite signal [3]: 1.66E+05 and 1.93E+05 and 1.68E+05
- Glutathione (C00051) metabolite signal [3]: 1.67E+08 and 1.41E+08 and 9.66E+07
- Glutathione disulfide (metabolite signal) [3]: 3.84E+05 and 6.78E+05 and 4.93E+05
- Hypoxanthine (C00262) metabolite signal [3]: 1.47E+05 and 1.29E+05 and 1.33E+05
- IMP (C00130) metabolite signal [3]: 7.71E+04 and 2.73E+04 and 2.17E+04
- Inosine (C00294) metabolite signal [3]: 9.47E+04 and 1.13E+05 and 1.20E+05
- L-Citrulline (metabolite signal) [3]: 1.15E+06 and 1.84E+06 and 2.36E+06
- L-Homoserine (metabolite signal) [3]: 2.11E+05 and 2.32E+05 and 1.47E+05
- Lactate (C01432) metabolite signal [3]: 7.24E+06 and 8.30E+06 and 8.24E+06
- Malate (C00149) metabolite signal [3]: 5.52E+05 and 5.73E+05 and 5.31E+05
- Mannitol (C00392) metabolite signal [3]: 8.67E+04 and 1.22E+05 and 1.45E+05
- N-Acetylneuraminate (metabolite signal) [3]: 2.28E+04 and 3.32E+04 and 3.78E+04
- N-Glycoloyl-neuraminate (metabolite signal) [3]: 2.22E+05 and 2.27E+05 and 1.72E+05
- NAD+ (C00003) metabolite signal [3]: 4.26E+04 and 2.68E+05 and 2.34E+05
- Nicotinamide (C00153) metabolite signal [3]: 1.57E+07 and 2.35E+07 and 2.66E+07
- Ornithine (metabolite signal) [3]: 2.19E+06 and 2.53E+06 and 2.49E+06
- Oxaloacetate (C00036) metabolite signal [3]: 6.97E+04 and 6.01E+04 and 4.98E+04
- Phosphoserine (metabolite signal) [3]: 4.87E+04 and 2.38E+05 and 2.25E+05
- Putrescine (metabolite signal) [3]: 4.73E+04 and 6.21E+04 and 7.27E+04
- Pyridoxal (C00250) metabolite signal [3]: 5.83E+04 and 4.46E+04 and 6.28E+04
- Pyruvate (C00022) metabolite signal [3]: 1.18E+06 and 1.33E+06 and 1.20E+06
- S-Glutathionyl-L-cysteine (metabolite signal) [3]: 1.80E+05 and 2.28E+05 and 9.16E+04
- Sedoheptulose 1-phosphate (C06222) metabolite signal [3]: 5.23E+04 and 6.25E+04 and 4.82E+04
- Spermidine (metabolite signal) [3]: 1.16E+07 and 9.80E+06 and 1.05E+07
- Spermine (metabolite signal) [3]: 9.70E+06 and 8.73E+06 and 7.99E+06
- Succinate (C00042) metabolite signal [3]: 9.79E+04 and 1.14E+05 and 1.10E+05
- Thymidine (C00214) metabolite signal [3]: 2.50E+04 and 1.31E+04 and 1.15E+04
- UDP (C00015) metabolite signal [3]: 6.45E+05 and 4.64E+05 and 1.60E+05
- UDP-N-acetyl-D-glucosamine (metabolite signal) [3]: 3.60E+04 and 3.50E+04 and 3.40E+04
- UDP-glucose (C00029) metabolite signal [3]: 1.12E+05 and 1.15E+05 and 9.19E+04
- Urate (C00366) metabolite signal [3]: 4.94E+04 and 4.14E+04 and 3.72E+04
- Xanthine (C00385) metabolite signal [3]: 2.85E+05 and 3.63E+05 and 3.38E+05
- alpha-D-Glucosamine 1-phosphate (metabolite signal) [3]: 1.10E+06 and 1.63E+06 and 3.07E+06
- alpha-D-Ribose 1-phosphate (C00620) metabolite signal [3]: 1.48E+05 and 1.44E+05 and 1.26E+05
- gamma-Glutamyl-gamma-aminobutyrate (metabolite signal) [3]: 8.69E+04 and 8.91E+04 and 1.07E+05
- gamma-L-Glutamyl-D-alanine (metabolite signal) [3]: 2.41E+04 and 3.08E+04 and 2.52E+04
- gamma-L-Glutamyl-L-cysteine (metabolite signal) [3]: 4.83E+04 and 5.61E+04 and 6.44E+03
